We go through 27 compounds from ChEMBL document CHEMBL5532687, “A colorimetric assay adapted to fragment screening revealing aurones and chalcones as new arginase inhibitors” (RSC Med Chem, 2024).

This experiment concerns the target T1, Arginase-1 (Bos taurus, UniProt Q2KJ64).
T1 sequence (Q2KJ64 whole entry): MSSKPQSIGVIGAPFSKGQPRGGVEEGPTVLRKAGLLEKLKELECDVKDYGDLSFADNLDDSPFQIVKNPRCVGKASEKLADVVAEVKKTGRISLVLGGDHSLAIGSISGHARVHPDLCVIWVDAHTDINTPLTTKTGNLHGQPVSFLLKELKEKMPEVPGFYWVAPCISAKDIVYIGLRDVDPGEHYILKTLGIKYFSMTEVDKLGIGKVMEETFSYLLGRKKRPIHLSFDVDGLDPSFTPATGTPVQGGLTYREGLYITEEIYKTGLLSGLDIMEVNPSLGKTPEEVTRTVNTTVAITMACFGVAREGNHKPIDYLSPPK
The experiment in a line: Inhibition of bovine liver arginase 1 using L-arginine as substrate incubated for 60 mins by OPA-p colorimetric assay.

One may read the IC50 as the point on the concentration scale where inhibition reaches its midpoint. Read a high IC50 as weaker potency in that assay.

`O=C(/C=C/c1ccc(O)c(O)c1)c1cccc(O)c1` gave a concentration for half-maximal inhibition (IC50) of 102 µM.

Regarding `O=C(/C=C/c1ccc(O)c(O)c1)c1ccccc1`, the IC50 was 351 µM. Against the preceding compound, the IC50 is about 3.4-fold higher.

The compound `O=C(/C=C/c1ccc(O)c(O)c1)c1cc(O)cc(O)c1` showed a concentration for half-maximal inhibition (IC50) of 136 µM.

In turn, `O=C(/C=C/c1ccc(O)c(O)c1)c1ccc(O)c(O)c1` had an IC50 of 91.1 µM.

`O=C1/C(=C/c2ccc(O)c(O)c2)Oc2c1ccc(O)c2O` came in with an IC50 of 254 µM.

Compound `O=C(/C=C/c1ccc(O)c(O)c1)c1ccc(O)cc1` showed an IC50 of 354 µM.

`O=C(/C=C/c1ccc(O)cc1)c1ccc(O)c(O)c1` registered an IC50 of 302 µM.

For the compound `N[C@@H](CSCCB(O)O)C(=O)O`, half-maximal inhibition (IC50) was put at 23 µM. Against the preceding compound, the IC50 is about 13-fold lower.

Turning to `Oc1ccc(Cl)cc1C1CC(c2ccco2)=NN1` (configuration not stated), the 50% inhibitory concentration (IC50) was 720 µM.

`O=C1/C(=C/c2ccc(O)c(O)c2O)Oc2c1ccc(O)c2O` returned an IC50 of 532 µM.

Consider `O=C1/C(=C/c2ccc(F)cc2)Oc2c1ccc(O)c2O`, for which 507 µM corresponded to half-maximal inhibition (IC50).

Consider `O=C1/C(=C/c2ccc(O)cc2)Oc2c1ccc(O)c2O`, for which the IC50 came out at 1930 µM.

As to `O=C1/C(=C/c2cc(O)c(O)c(O)c2)Oc2c1ccc(O)c2O`, half-maximal inhibition (IC50) required 287 µM. This IC50 lies about 6.7-fold lower than the previous one.

For the compound `O=C(/C=C/c1cc(O)c(O)c(O)c1)c1ccc(O)c(O)c1`, the IC50 worked out at 764 µM.

As for `O=C(/C=C/c1ccccc1)c1ccc(O)c(O)c1`, the 50% inhibitory concentration (IC50) was found to be 384 µM.

Compound `O=C(/C=C/c1cc(O)cc(O)c1)c1ccc(O)c(O)c1` gave a concentration for half-maximal inhibition (IC50) of 364 µM.

On to `O=C(/C=C/c1cccc(O)c1)c1ccc(O)c(O)c1`, for which the IC50 amounted to 135 µM.

`O=C1/C(=C/c2cccc(O)c2)Oc2c1ccc(O)c2O` showed an IC50 of 120 µM. This IC50 and that of the compound before are within 1.5-fold of each other.

In turn, `O=C1/C(=C/c2c(F)c(F)c(F)c(F)c2F)Oc2c1ccc(O)c2O` registered an IC50 of 1090 µM.

For `O=C1/C(=C/c2ccc(F)c(F)c2)Oc2c1ccc(O)c2O`, inhibition was half-maximal at 312 µM (IC50). This IC50 is about 3.5-fold lower than that of the compound before.

Take `O=C1C(=Cc2ccc(O)c(O)c2)C(=O)c2ccccc21`: 537 µM corresponded to half-maximal inhibition (IC50).

`O=C(/C=C/c1ccc(O)c(O)c1)c1c(O)cc(O)cc1O` [3,4,2',4',6'-PENTAHYDROXYCHALCONE] registered an IC50 of 98 µM. This IC50 lies about 5.5-fold lower than the previous one.

Turning to `O=C(/C=C/c1ccc(O)c(O)c1)c1ccc(O)cc1O` [BUTEIN], inhibition was half-maximal at 1550 µM (IC50).

`O=C(/C=C/c1ccc(O)c(O)c1)O[C@@H]1C[C@](O)(C(=O)O)C[C@@H](O)[C@H]1O` [CHLOROGENIC ACID] gave an IC50 of 271 µM.

The compound `Oc1cc(O)cc(/C=C/c2ccc(O)c(O)c2)c1` [PICEATANNOL] registered an IC50 of 71.6 µM.

`Oc1cccc(O)c1O` [PYROGALLOL] returned an IC50 of 375 µM.

In turn, `O=C1/C(=C/c2ccc(O)c(O)c2)Oc2cc(O)ccc21` [SULFURETIN] showed a half-inhibitory concentration (IC50) of 437 µM.
